This assay deals with T1, Type-1 angiotensin II receptor (Oryctolagus cuniculus, UniProt P34976).
T1 sequence (P34976 whole entry): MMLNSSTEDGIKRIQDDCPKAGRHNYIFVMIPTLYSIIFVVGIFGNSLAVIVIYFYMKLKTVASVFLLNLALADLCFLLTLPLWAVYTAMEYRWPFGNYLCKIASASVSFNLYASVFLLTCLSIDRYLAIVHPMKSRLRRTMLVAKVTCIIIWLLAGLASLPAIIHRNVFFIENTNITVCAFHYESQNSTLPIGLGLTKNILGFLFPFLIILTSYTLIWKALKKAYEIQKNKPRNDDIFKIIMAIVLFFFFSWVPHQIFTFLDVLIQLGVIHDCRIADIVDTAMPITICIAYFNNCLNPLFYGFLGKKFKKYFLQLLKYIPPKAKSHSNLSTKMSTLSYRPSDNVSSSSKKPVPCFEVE
The assay can be described thus: Antagonist activity at AT1 receptor in rabbit aorta membranes. It counts as cell membranes, Membrane.

pIC50: −log10 of the molar value.

Take `CCCCC(=O)Nc1ccc(C)c(-n2nc(CCCC)n(Cc3ccc(-c4ccccc4S(=O)(=O)NC(=O)c4ccccc4Cl)cc3)c2=O)c1`: the pIC50 (in general, −log10 of the IC50, conventionally taken in molar units) is 7.62.

The values are drawn from ChEMBL document CHEMBL2424659, “Comparative QSAR and pharmacophore analysis for a series of 2,4-dihydro-3H-1,2,4-triazol-3-ones derivatives as angiotensin II AT1 receptor antagonists” (Med Chem Res, 2013).
